Assay results from paper PMC4977651, “Molecular features of biguanides required for targeting of mitochondrial respiratory complex I and activation of AMP-kinase” (BMC Biology, 2016).
Values joined by “and” are separate entries in the source; they are usually repeats but may differ in a detail not shown here. Equal entries are not always repeated.

Assays:
143B cells = assay: Rotenone-sensitive oxygen consumption rate in intact 143B cells; format: cell-based, human; conditions: for rotenone sensitive OCR after 6 hours of biguanide exposure, % control, average / rotenone sensitive OCR after 6 hours of biguanide exposure, average: biguanide at IC50/10; for rotenone sensitive OCR after 6 hours of biguanide exposure, average: OCR normalized to OCR immediately prior to biguanide addition; for inhibition of rotenone-sensitive respiration (in words): intact 143B cells, biguanide at IC50/10, monitored for 6 h
Protocol: 143B (CRL-8303 from ATCC), HepG2 (85011430 from The Health Protection Agency), and MDBK (CCL-22 from ATCC) cells were grown on Dulbecco’s modified Eagle’s medium (DMEM) supplemented with 10 % fetal bovine serum (FBS, Thermo Fisher Scientific) at 37 °C in 5 % CO2. All cells were confirmed as negative for mycoplasma.
Oxygen consumption rates (OCRs) were measured using a Seahorse XF96 extracellular flux analyzer at 37 °C. For intact cell measurements, 1.4 × 10^4 143B, HepG2, or MDBK cells were plated (per well) in DMEM containing 10 % FBS into Seahorse Bioscience Inc. XF96 plates and incubated for ~12 h at 37 °C in 5 % CO2. Then, the medium was exchanged for assay buffer containing DMEM, 4.5 g L^−1 glucose, 1 mM pyruvate, 32 mM NaCl, 2 mM GlutaMAX, 15 mg L^−1 phenol red, and 20 mM HEPES (pH 7.4 at 37 °C) and the cells placed in a CO2-free incubator at 37 °C for 30 min. Basal oxygen consumption rates were established before the addition of biguanides at one-tenth of their IC50 (IC50/10), and followed for ~ 6 h before the addition of rotenone (2 μM).
(§1) Rotenone-sensitive OCRs were calculated by subtracting the rotenone-insensitive rates (determined at the end of the experiment). OCRs were normalized by dividing by the OCR recorded immediately prior to the addition of biguanide. For rate of uptake calculations, the OCRs at time points after biguanide addition were divided by the OCRs at the same time points in control experiments. Data from wells with failed port injections were excluded from the analyses. The respiratory control ratio (RCR) values (state III versus state IV respiration) were ~11 and ~6 for permeabilized MDBK and 143B cells, respectively.

[1] = tested on: bovine mitochondrial membranes (complexes II-III-IV); assay: Succinate:O2 oxidoreduction (complexes II-III-IV, complex II assay) by bovine mitochondrial membranes; format: biochemical, Bos taurus; conditions: biguanide concentrations set to the IC50 values for NADH:O2 on bovine membranes; control = 100.00; n = 3
Protocol: Assays were performed at 32 °C in a SpectraMax 96-well plate reader. NADH:decylubiquinone oxidoreduction by complex I at 0.5 μg mL^−1 was measured in 20 mM Tris-HCl (pH 7.2), 0.15 % soy bean asolectin (Avanti Polar Lipids), and 0.15 % 3-((3-cholamidopropyl)dimethylammonium)-1-propanesulfonate (CHAPS, Merck Chemicals Ltd), with 200 μM decylubiquinone and 200 μM NADH, and monitored using ε340–380(NADH) = 4.81 mM^−1 cm^−1 [23]. Catalysis was initiated by addition of NADH and maximal rates determined by linear regression. NADH:O2 oxidoreduction by membranes was measured similarly but using 5 μg mL^−1 membranes in 10 mM Tris-HCl (pH 7.4) and 250 mM sucrose using 200 μM NADH and supplemented with 0.15 mM horse heart cytochrome c (Sigma-Aldrich Ltd.). Succinate:O2 oxidoreduction was measured using 40 μg mL^−1 membranes in 5 mM succinate in 10 mM Tris-HCl (pH 7.4) as described previously. Control experiments included NaCl (to match the ionic strength) or DMSO, as appropriate.

permeabilized 143B cells = assay: ADP-stimulated rotenone-sensitive OCR in permeabilized 143B cells; format: cell-based, human; design: rotenone sensitive OCR after ADP stimulation, individual replicates / rotenone sensitive OCR after ADP stimulation, average: unit not given here; conditions: for rotenone sensitive OCR after ADP stimulation, % of control, average / rotenone sensitive OCR after ADP stimulation, average / rotenone sensitive OCR after ADP stimulation, % of control, individual replicates / rotenone sensitive OCR after ADP stimulation, individual replicates: 143B permeabilised cells; for rotenone sensitive OCR after ADP stimulation, % of control, average / rotenone sensitive OCR after ADP stimulation, average: average of replicates; for rotenone sensitive OCR after ADP stimulation, % of control, individual replicates / rotenone sensitive OCR after ADP stimulation, individual replicates: replicate 1-11; for inhibition of the OCR (in words): permeabilized 143B cells, biguanide concentration equal to IC50
Protocol: For permeabilized cell experiments, cells were seeded into XF96 plates at 0.9–1.1 × 10^4 per well and incubated for 48 h at 37 °C in 5 % CO2. Then, the growth medium was exchanged for assay buffer containing 3 nM plasma membrane permeabilizer ‘PMP’ (Seahorse Biosciences Inc.), 10 mM glutamate, 10 mM malate, 220 mM mannitol, 70 mM sucrose, 10 mM KH2PO4, 5 mM MgCl2, 1 mM EGTA, 0.2 % fatty acid-free bovine serum albumin (BSA), and 2 mM HEPES (pH 7.4 at 37 °C). […] The biguanides were allowed to accumulate for 30 min, then respiration was […] by the addition of 4 mM ADP. Rotenone was added (2 μM) at the end of the experiment.
as §1

AMPK-α (phospho-Thr172) = assay: AMPK activation, western blot of phospho-AMPK-α in MDBK cells; format: cell-based, Bos taurus; conditions: for p-alpha, average normalised to control: Averages of experiments 1-3, 18 hours; for p-alpha: band intensity
Protocol: MDBK cells were seeded at 1 × 10^6 cells per 6 cm dish in DMEM containing 10 % FBS. […] After 18 h cells were harvested by a rapid lysis procedure: cells were rinsed with PBS, then lysed using ice-cold buffer containing 50 mM HEPES, 1 mM EDTA, 10 % glycerol, 50 mM NaF, 5 mM sodium pyrophosphate, 1 % Triton-X100, 1 mM dithiothreitol (DTT), and a protease inhibitor cocktail (Roche). The cell lysate was centrifuged at 14,000 × g for 20 min at 4 °C and the protein concentration of the supernatant determined by bicinchoninic acid assay. The lysate was analyzed using Novex 3–12 % bis-Tris gels run in 3-(N-morpholino)propanesulfonic acid (MOPS) buffer (20 μg of protein per lane) followed by transfer to low fluorescence polyvinylidene fluoride membranes by wet transfer. Primary rabbit antibodies for AMPK-β (57C12), AMPK-α (phospho-Thr172) (40H9), and acetyl-coA carboxylase (phospho-Ser79) (Cell Signaling Technology) were incubated overnight with the membrane (1:1000 dilution) in Odyssey blocking buffer at 4 °C. A fluorescent secondary antibody was used (IRDYE800CW from LI-COR Biosciences, 1:20,000 dilution) with a LI-COR Odyssey imaging system.

SMILES	rotenone sensitive OCR after 6 hours of biguanide exposure, % control, average (143B cells; 143B cells) [% control]	rotenone sensitive OCR after 6 hours of biguanide exposure, average (143B cells; 143B cells)	inhibition of rotenone-sensitive respiration (in words) (143B cells)	Complex II assay (succinate:O2 oxidoreduction), average [1]	rotenone sensitive OCR after ADP stimulation, % of control, average (permeabilized 143B cells)	rotenone sensitive OCR after ADP stimulation, average (permeabilized 143B cells)	rotenone sensitive OCR after ADP stimulation, % of control, individual replicates (permeabilized 143B cells)	rotenone sensitive OCR after ADP stimulation, individual replicates (permeabilized 143B cells)	p-alpha, average normalised to control (AMPK-α (phospho-Thr172))	p-alpha / AMPK beta (AMPK-α (phospho-Thr172); Experiment 1, 18 hours)	p-alpha / AMPK beta normalised to control (AMPK-α (phospho-Thr172); Experiment 1, 18 hours)	p-alpha (AMPK-α (phospho-Thr172); Experiment 1, 18 hours)	p-alpha / AMPK beta (AMPK-α (phospho-Thr172); Experiment 2, 18 hours)	p-alpha / AMPK beta normalised to control (AMPK-α (phospho-Thr172); Experiment 2, 18 hours)	p-alpha (AMPK-α (phospho-Thr172); Experiment 2, 18 hours)	p-alpha / AMPK beta (AMPK-α (phospho-Thr172); Experiment 3, 18 hours)	p-alpha / AMPK beta normalised to control (AMPK-α (phospho-Thr172); Experiment 3, 18 hours)	p-alpha (AMPK-α (phospho-Thr172); Experiment 3, 18 hours)	inhibition of the OCR (in words) (permeabilized 143B cells)	further results
NC(N)=NC(N)=NCCc1ccc(Cl)cc1 [compound 1, 2-[2-(4-chlorophenyl)ethyl]-1-(diaminomethylidene)guanidine]	3.06	3.59	inhibit respiration	92.41	10.59 % of control	25.27	28.33 % of control and 12.14 % of control and 11.88 % of control and 16.92 % of control and 4.82 % of control and 10.72 % of control and 0.16 % of control and 5.78 % of control and 8.84 % of control and 6.27 % of control	67.63 and 28.97 and 28.36 and 40.38 and 11.50 and 25.59 and 0.37 and 13.80 and 21.11 and 14.98	5.54	0.63	5.05	288	1.08	7.41	388	0.86	4.15	220		AMPK activation (in words) (AMPK-α (phospho-Thr172); 18-h treatment, IC50/10 biguanide concentrations): slightly lower activation
N=C(N)NC(N)=Nc1ccccc1 [compound 2, phenyl biguanide]	98.12	115.02	do not	92.05	76.10 % of control	181.66	64.11 % of control and 81.27 % of control and 71.75 % of control and 89.78 % of control and 64.02 % of control and 84.74 % of control and 60.92 % of control and 78.85 % of control and 104.39 % of control and 61.15 % of control	153.03 and 194.01 and 171.28 and 214.31 and 152.84 and 202.30 and 145.43 and 188.22 and 249.19 and 145.97	1.18	0.14	1.11	64.6	0.17	1.14	57.4	0.27	1.28	57.3	only limited inhibition	
NC(N)=NC(N)=NCc1ccccc1 [compound 3, 2-benzyl-1-(diaminomethylidene)guanidine]	3.11	3.64	inhibit respiration	97.37			6.07 % of control and 2.51 % of control and 3.63 % of control and 7.99 % of control and 8.80 % of control and 18.64 % of control and 13.94 % of control and 7.14 % of control and 16.57 % of control and 2.18 % of control and 7.53 % of control	14.50 and 5.99 and 8.67 and 19.08 and 21.01 and 44.51 and 33.29 and 17.05 and 39.56 and 5.21 and 17.98	10.88	1.27	10.17	594	1.33	9.10	402	2.78	13.38	628		
CC(C)N=C(N)N=C(N)N [compound 4, 1-(diaminomethylidene)-2-(propan-2-yl)guanidine]	0.91	1.07	inhibit respiration	101.59	4.94 % of control	11.79	-1.48 % of control and 3.88 % of control and 15.33 % of control and 9.59 % of control and 8.04 % of control and 7.71 % of control and 5.26 % of control and 0.97 % of control and -3.74 % of control and 3.83 % of control	-3.53 and 9.26 and 36.59 and 22.89 and 19.19 and 18.41 and 12.55 and 2.31 and -8.93 and 9.14	12.85	1.65	13.27	732	1.91	13.08	500	2.53	12.19	499		estimated rate of uptake into mitochondria (143B cells; 143B cells, 3 mM in the extracellular medium): > 1.5 mM/min
CC(C)N=C(N)N=C(N)NC(C)C [compound 5, N-(propan-2-yl)-1-3-(propan-2-yl)carbamimidamidomethanimidamide]	102.76	120.45	do not	100.71	45.65 % of control	108.98	36.39 % of control and 47.66 % of control and 76.44 % of control and 36.22 % of control and 38.53 % of control and 52.52 % of control and 38.52 % of control and 38.94 % of control	86.86 and 113.77 and 182.47 and 86.47 and 91.97 and 125.38 and 91.96 and 92.95	1.21	0.13	1.05	62.5	0.17	1.19	52.5	0.29	1.38	51.1	only limited inhibition	
